Patent US20250319032A1, “PHARMACEUTICAL COMPOSITIONS OF RIBOCICLIB” (Novartis AG, priority 2024, published 2025)

Assay: Nitrite content (ion chromatography; LC-FLD with DAN derivatisation; Griess test) in drug substance, intermediates, reagents, solvents, filters, excipients
Format: physicochemical
Parameters: Nitrite content T0 (enhanced method): unit: ppm
Conditions: for Nitrite [ppm] LOD (1 ppm): ribociclib base (LEE011 B10), ion chromatography; for Nitrite content T0 (enhanced method): drug substance manufactured at Menges; for Nitrite NAP method (ppm) / Nitrite NAT enhanced sample prep. (ppm): ribociclib succinate drug substance batches at release
Source text: The method of testing for the presence and/or total amount of nitrites that is used in the methods of the invention may be any method which allows for the detection and/or quantitation of nitrites in a composition. For example, the method may be the Griess test. The Griess test allows for the detection and analysis of nitrite by the formation of a red-pink colour upon treatment of a nitrite-containing sample with the Griess reagent. The Griess reagent consists of two components in an acidic solution: an aniline derivative and a coupling agent. The most common arrangements use sulfanilamide and N-(1-naphthyl)ethylenediamine. For example 0.2% N-(1-naphthyl)ethylenediamine dihydrochloride and 2% sulfanilamide in 5% phosphoric acid may be used as a Griess reagent. Other aniline derivatives that may be used in a Griess reagent include sulfanilic acid, nitroaniline, and p-aminoacetophenone.
The Griess test involves two subsequent reactions, as shown in the scheme below. When the aniline derivative (e.g., sulfanilamide) is added, the nitrite ion reacts with it in the Griess diazotization reaction to form a diazonium salt, which then reacts with N-(1-naphthyl)ethylenediamine in an azo-coupling reaction, forming a pink-red azo-dye. Using a spectrophotometer, the nitrite concentration can then be quantitatively detected.
Additionally purified water; e.g. Milli Q • 2.
• 10 mM KH2PO4 Weigh accurately about 1.361 g of KH2PO4 into a 1 L volumetric flask, dissolve it in approximately 950 mL of additionally purified water and adjust the pH to 8.0 (with 2.7 M NaOH). Make up to the mark with additionally purified water. • 0.62 M HCl Add a few millilitres (e.g. 20 mL) of additionally purified water to a 200 mL volumetric flask, add 10.280 mL of concentrated HCl, mix and make up to the mark with additionally purified water. • 2.7 M NaOH Weigh accurately about 1.092 g of NaOH pellets into a 10 mL volumetric flask and dissolve it in additionally purified water. Cool to room temperature and make up to the mark with the same solvent. • Reagent DAN Weigh accurately about 5 mg of 2,3-diaminophthalene into a 100 mL volumetric flask and dissolve it with the solvent (methanol/water 1:1 (v/v)). Dilute up to the mark and ensure visual full dissolution. Use an amberglass flask. • Mobile phase A Mix 950 mL of 10 mM KH2PO4 solution (pH=8) and add 50 mL methanol. • Mobile phase B Methanol. • Solvent Methanol/water 1:1 (v/v), e.g. mix 2000 mL of additionally purified water and 2000 mL methanol.
• Instrument: HPLC with FLR detector; e.g. Waters Arc or equivalent • Column: C18 50×4.6 mm, 2.5 μm, e.g. XBridge C18 2.5 μm, 4.650 mm or equivalent
• Notes It is recommended to wear additional protective equipment (face mask and gloves) during weighing. • It is recommended to wash the column with 50% methanol after the analysis (example of preparation: mix 500 mL methanol and 500 m1 of additionally purified water). • It is recommended to rinse the injector with solvent after each injection. • All glassware and tools should be rinsed with additionally purified water before use. It is not recommended to leave the solutions open for a longer time before measurement. • Blank solution 1 Transfer 1 mL of solvent into a HPLC vial and perform derivatization as described below. • Blank solution 2 Transfer 10 mL of solvent into a single use glass vial and mix it on a magnetic stirrer for 30 min. Transfer the solution into a 5 mL centrifuge tube and centrifuge for 10 min at 12000 rpm. […] Fill up to the mark with solvent and mix. • (Cnitrite≈0.0005 mg/mL) • Comparison solution Transfer 10 mL of nitrite stock solution into a 500 mL volumetric flask. • (2 parallels) Fill up to the mark with solvent and mix. • Transfer 1 mL solution into a HPLC vial and perform the derivatization as described below. • (Cnitrite≈100 ppb) • Sample solution Accurately weigh about 1000 mg of the sample into a glass vial for single use and add 10 mL of solvent.

| Nitrite [ppm] LOD (1 ppm) | Nitrite content T0 (enhanced method) | Nitrite NAP method (ppm) | Nitrite NAT enhanced sample prep. (ppm) | Structure (SMILES) |
| --- | --- | --- | --- | --- |
| <LOD | – | – | – | CN(C)C(=O)c1cc2cnc(Nc3ccc(N4CCNCC4)cn3)nc2n1C1CCCC1 [Batch B685591] |
| <LOD | – | – | – | CN(C)C(=O)c1cc2cnc(Nc3ccc(N4CCNCC4)cn3)nc2n1C1CCCC1 [Batch B687416] |
| – | 0.1 | 0.2 ppm | 0.1 ppm | CN(C)C(=O)c1cc2cnc(Nc3ccc(N4CCNCC4)cn3)nc2n1C1CCCC1.O=C(O)CCC(=O)O [Batch B692472] |
| – | 0.5 | 0.3 ppm | 0.5 ppm | CN(C)C(=O)c1cc2cnc(Nc3ccc(N4CCNCC4)cn3)nc2n1C1CCCC1.O=C(O)CCC(=O)O [Batch B695104] |
| – | – | 0.3 ppm | 0.3 ppm | CN(C)C(=O)c1cc2cnc(Nc3ccc(N4CCNCC4)cn3)nc2n1C1CCCC1.O=C(O)CCC(=O)O [Batch B695105] |
| – | 0.1 | 0.2 ppm | 0.1 ppm | CN(C)C(=O)c1cc2cnc(Nc3ccc(N4CCNCC4)cn3)nc2n1C1CCCC1.O=C(O)CCC(=O)O [Batch B695106] |
| – | <0.1 | 0.2 ppm | <0.1 ppm | CN(C)C(=O)c1cc2cnc(Nc3ccc(N4CCNCC4)cn3)nc2n1C1CCCC1.O=C(O)CCC(=O)O [Batch B696587] |
| – | – | 0.2 ppm | 0.1 ppm | CN(C)C(=O)c1cc2cnc(Nc3ccc(N4CCNCC4)cn3)nc2n1C1CCCC1.O=C(O)CCC(=O)O [Batch B696588] |
| – | – | 0.2 ppm | <0.1 ppm | CN(C)C(=O)c1cc2cnc(Nc3ccc(N4CCNCC4)cn3)nc2n1C1CCCC1.O=C(O)CCC(=O)O [Batch B696589] |
| – | – | 0.3 ppm | 0.4 ppm | CN(C)C(=O)c1cc2cnc(Nc3ccc(N4CCNCC4)cn3)nc2n1C1CCCC1.O=C(O)CCC(=O)O [Batch B696590] |
| – | – | 0.3 ppm | 0.4 ppm | CN(C)C(=O)c1cc2cnc(Nc3ccc(N4CCNCC4)cn3)nc2n1C1CCCC1.O=C(O)CCC(=O)O [Batch B698293] |
| – | – | 0.2 ppm | 0.2 ppm | CN(C)C(=O)c1cc2cnc(Nc3ccc(N4CCNCC4)cn3)nc2n1C1CCCC1.O=C(O)CCC(=O)O [Batch B698294] |
| – | – | 0.3 ppm | 0.4 ppm | CN(C)C(=O)c1cc2cnc(Nc3ccc(N4CCNCC4)cn3)nc2n1C1CCCC1.O=C(O)CCC(=O)O [Batch B698295] |
| – | – | 0.4 ppm | 0.3 ppm | CN(C)C(=O)c1cc2cnc(Nc3ccc(N4CCNCC4)cn3)nc2n1C1CCCC1.O=C(O)CCC(=O)O [Batch B698296] |
| – | – | 0.2 ppm | 0.1 ppm | CN(C)C(=O)c1cc2cnc(Nc3ccc(N4CCNCC4)cn3)nc2n1C1CCCC1.O=C(O)CCC(=O)O [Batch B698297] |
| – | – | 0.2 ppm | <0.1 ppm | CN(C)C(=O)c1cc2cnc(Nc3ccc(N4CCNCC4)cn3)nc2n1C1CCCC1.O=C(O)CCC(=O)O [Batch B698298] |
| – | – | 0.1 ppm | <0.1 ppm | CN(C)C(=O)c1cc2cnc(Nc3ccc(N4CCNCC4)cn3)nc2n1C1CCCC1.O=C(O)CCC(=O)O [Batch B699003] |
| – | – | 0.2 ppm | 0.1 ppm | CN(C)C(=O)c1cc2cnc(Nc3ccc(N4CCNCC4)cn3)nc2n1C1CCCC1.O=C(O)CCC(=O)O [Batch B707657] |

| Nitrite [ppm] LOD (1 ppm) | Nitrite content T0 (enhanced method) | Nitrite NAP method (ppm) | Nitrite NAT enhanced sample prep. (ppm) | Structure (SMILES) |
| --- | --- | --- | --- | --- |
| – | – | 0.2 ppm | <0.1 ppm | CN(C)C(=O)c1cc2cnc(Nc3ccc(N4CCNCC4)cn3)nc2n1C1CCCC1.O=C(O)CCC(=O)O [Batch B708687] |
| – | – | 0.2 ppm | <0.1 ppm | CN(C)C(=O)c1cc2cnc(Nc3ccc(N4CCNCC4)cn3)nc2n1C1CCCC1.O=C(O)CCC(=O)O [Batch B708688] |
| – | – | 0.2 ppm | <0.1 ppm | CN(C)C(=O)c1cc2cnc(Nc3ccc(N4CCNCC4)cn3)nc2n1C1CCCC1.O=C(O)CCC(=O)O [Batch B709049] |
| – | – | 0.2 ppm | 0.1 ppm | CN(C)C(=O)c1cc2cnc(Nc3ccc(N4CCNCC4)cn3)nc2n1C1CCCC1.O=C(O)CCC(=O)O [Batch B709050] |
| – | – | 0.2 ppm | <0.1 ppm | CN(C)C(=O)c1cc2cnc(Nc3ccc(N4CCNCC4)cn3)nc2n1C1CCCC1.O=C(O)CCC(=O)O [Batch B709051] |
| – | – | 0.2 ppm | <0.1 ppm | CN(C)C(=O)c1cc2cnc(Nc3ccc(N4CCNCC4)cn3)nc2n1C1CCCC1.O=C(O)CCC(=O)O [Batch B709938] |
| – | – | 0.2 ppm | <0.1 ppm | CN(C)C(=O)c1cc2cnc(Nc3ccc(N4CCNCC4)cn3)nc2n1C1CCCC1.O=C(O)CCC(=O)O [Batch B709939] |
| – | – | 0.2 ppm | <0.1 ppm | CN(C)C(=O)c1cc2cnc(Nc3ccc(N4CCNCC4)cn3)nc2n1C1CCCC1.O=C(O)CCC(=O)O [Batch B709940] |
| – | – | 0.1 ppm | 0.1 ppm | CN(C)C(=O)c1cc2cnc(Nc3ccc(N4CCNCC4)cn3)nc2n1C1CCCC1.O=C(O)CCC(=O)O [Batch B709941] |
| – | – | 0.2 ppm | 1.6 ppm | CN(C)C(=O)c1cc2cnc(Nc3ccc(N4CCNCC4)cn3)nc2n1C1CCCC1.O=C(O)CCC(=O)O [Batch B710665] |
| – | – | 0.5 ppm | <0.1 ppm | CN(C)C(=O)c1cc2cnc(Nc3ccc(N4CCNCC4)cn3)nc2n1C1CCCC1.O=C(O)CCC(=O)O [Batch B710666] |
| – | – | 0.2 ppm | 0.1 ppm | CN(C)C(=O)c1cc2cnc(Nc3ccc(N4CCNCC4)cn3)nc2n1C1CCCC1.O=C(O)CCC(=O)O [Batch B710668] |
| – | – | 0.1 ppm | <0.1 ppm | CN(C)C(=O)c1cc2cnc(Nc3ccc(N4CCNCC4)cn3)nc2n1C1CCCC1.O=C(O)CCC(=O)O [Batch B710669] |
| – | – | 0.1 ppm | <0.1 ppm | CN(C)C(=O)c1cc2cnc(Nc3ccc(N4CCNCC4)cn3)nc2n1C1CCCC1.O=C(O)CCC(=O)O [Batch B711439] |
| – | – | 0.1 ppm | 0.9 ppm | CN(C)C(=O)c1cc2cnc(Nc3ccc(N4CCNCC4)cn3)nc2n1C1CCCC1.O=C(O)CCC(=O)O [Batch B711440] |
| – | – | 0.2 ppm | <0.1 ppm | CN(C)C(=O)c1cc2cnc(Nc3ccc(N4CCNCC4)cn3)nc2n1C1CCCC1.O=C(O)CCC(=O)O [Batch B711866] |
| – | <0.1 | 0.1 ppm | 0.1 ppm | CN(C)C(=O)c1cc2cnc(Nc3ccc(N4CCNCC4)cn3)nc2n1C1CCCC1.O=C(O)CCC(=O)O [Batch B711867] |
| – | – | – | <0.1 ppm | CN(C)C(=O)c1cc2cnc(Nc3ccc(N4CCNCC4)cn3)nc2n1C1CCCC1.O=C(O)CCC(=O)O [Batch B711868] |
